Measurements as given in the supplement of paper PMC5303821, “Major sulfonate transporter Soa1 in Saccharomyces cerevisiae and considerable substrate diversity in its fungal family” (Nature Communications, 2017).

Columns and labels:
Settings in all cases: sulfur source concentration 200 µM; S. cerevisiae S288C/BY sul1Δ sul2Δ soa1Δ with transporter ortholog inserted at SOA1 locus; sulfur-free B medium, 4% glucose, pH 6.5, sole sulfur source
[1] = tested on: Metarhizium robertsii_XP_007822519; test: lag phase before growth; higher = slower start of growth
[2] = tested on: Ogataea parapolymorpha_XP_013935289; test: as above
[3] = tested on: Saccharomyces cerevisiae_SOA1; test: as above
[4] = tested on: Saccharomyces eubayanus_SOA1; test: as above
[5] = tested on: Saccharomyces uvarum_SOA1; test: as above
[6] = tested on: Saccharomyces uvarum_SOA2; test: as above
[7] = tested on: Aspergillus nidulans_CBF74694; test: maximal culture density with compound as sole sulfur source (OD600); higher = better growth
[8] = tested on: Fusarium oxysporum_ENH65823; test: as above
[9] = tested on: Metarhizium robertsii_XP_007822519; test: as above
[10] = tested on: Ogataea parapolymorpha_XP_013936897; test: as above
[11] = tested on: Saccharomyces cerevisiae_SOA1; test: as above
[12] = tested on: Saccharomyces eubayanus_SOA2; test: as above
[13] = tested on: Saccharomyces uvarum_SOA1; test: as above
[14] = tested on: Saccharomyces uvarum_SOA2; test: as above
[15] = tested on: Aspergillus nidulans (IAM 2006)_astA; test: maximal growth rate with compound as sole sulfur source (OD600 per h); higher = better growth / uptake of the sulfur source
[16] = tested on: Aspergillus nidulans_CBF74694; test: as above
[17] = tested on: Aspergillus nidulans_CBF80346; test: as above
[18] = tested on: Aspergillus nidulans_XP_660563; test: as above
[19] = tested on: Aspergillus nidulans_XP_660670; test: as above
[20] = tested on: Aspergillus nidulans_XP_661711; test: as above
[21] = tested on: Aspergillus nidulans_XP_661733; test: as above
[22] = tested on: Aspergillus nidulans_XP_681611; test: as above
[23] = tested on: Fusarium oxysporum_ENH65823; test: as above
[24] = tested on: Metarhizium robertsii_XP_007821441; test: as above
[25] = tested on: Metarhizium robertsii_XP_007822519; test: as above
[26] = tested on: Metarhizium robertsii_XP_007823832; test: as above
[27] = tested on: Ogataea parapolymorpha_XP_013932458; test: as above
[28] = tested on: Ogataea parapolymorpha_XP_013935289; test: as above
[29] = tested on: Ogataea parapolymorpha_XP_013936897; test: as above
[30] = tested on: Saccharomyces cerevisiae_SOA1; test: as above
[31] = tested on: Saccharomyces eubayanus_SOA1; test: as above
[32] = tested on: Saccharomyces eubayanus_SOA2; test: as above
[33] = tested on: Saccharomyces uvarum_SOA1; test: as above
[34] = tested on: Saccharomyces uvarum_SOA2; test: as above
soa1 del = test: as above

## O=S(O)O [sulfite]
[1]
  lag phase before growth: 0.981 h
[2]
  lag phase before growth: 5.63 h
[3]
  lag phase before growth: 6.67 h
[4]
  lag phase before growth: 6.97 h
[5]
  lag phase before growth: 5.95 h
[6]
  lag phase before growth: 11 h
[7]
  maximal culture density: 0.196
[8]
  maximal culture density: 0.256
[9]
  maximal culture density: 1
[10]
  maximal culture density: 0.284
[11]
  maximal culture density: 1.6
[12]
  maximal culture density: 0.645
[13]
  maximal culture density: 1.61
[14]
  maximal culture density: 1.44
[15]
  maximal growth rate: 0.104
[16]
  maximal growth rate: 0.00286
[17]
  maximal growth rate: 0.00484
[18]
  maximal growth rate: 0.00646
[19]
  maximal growth rate: 0.00402
[20]
  maximal growth rate: 0.004
[21]
  maximal growth rate: 0.0047
[22]
  maximal growth rate: 0.00588
[23]
  maximal growth rate: 0.00381
[24]
  maximal growth rate: 0.00339
[25]
  maximal growth rate: 0.0114
[26]
  maximal growth rate: 0.0855
[27]
  maximal growth rate: 0.0051
[28]
  maximal growth rate: 0.0989
[29]
  maximal growth rate: 0.00463
[30]
  maximal growth rate: 0.12
[31]
  maximal growth rate: 0.0839
[32]
  maximal growth rate: 0.00564
[33]
  maximal growth rate: 0.0915
[34]
  maximal growth rate: 0.0556
soa1 del
  maximal growth rate: 0.00378
